This note sets out measurements from US12428428B2, “Tricyclic tetrahydroisoquinoline derivative, preparation method therefor and application thereof in medicine” (JIANGSU HENGRUI MEDICINE CO., LTD., priority 2020, dated 2025).

The target of one assay is ERα (Homo sapiens (Human), UniProt P03372). The assay can be described thus: Degradation of ERα in MCF-7 cells (ELISA). The assay is classed as cell-based. Also on record: Dmax: dose or concentration left out as unconfirmed. The following applies: for Dmax at 3 µM: MCF7, read-out: Emax degradation (%); for DC50: MCF-7 cells, 16 to 18 h, read-out: EC50 (nM), degradation of ERα. Here is the method: ERα-positive breast cancer cell line MCF-7 cells were cultured in a DMEM/F12 medium (HyClone, SH30023.01) containing 10% fetal bovine serum (Corning, 35-010-CV). […] The following day the compounds were serially diluted with DMSO and further diluted with the phenol red-free DMEM/F12 medium containing 5% charcoal-stripped fetal bovine serum. 20 μL of a diluted compound was added to each well of the 48-well plate at final concentrations of 3000, 300, 30, 3, 0.3, 0.03 and 0.003 nM. The 48-well plate was placed in the incubator for 16 to 18 h. A 96-well plate was coated with the capture antibody from the human ERα/NR3A1 total protein assay kit (R&D, DYC5715-5). […] The plate was placed in an incubator at 26° C. overnight. On day 3, the antibody-coated 96-well plate was washed once with PBS, and 200 μL of PBS containing 1% BSA was added to each well. The plate was incubated in an incubator at 37° C. for 1.5 h to be blocked. The cell culture medium supernatant was discarded. The cells were washed once with PBS, and 60 μL of a cell lysis buffer was added to each well. […] The cells were lysed on ice for 15 min, and 300 μL of PBS containing 1 mM EDTA and 0.5% TritonX-100 was added to each well to dilute the urea to 1 M. The blocking buffer in the blocked 96-well plate was discarded, and 100 μL of diluted cell lysis buffer was added to each well. The plate was incubated in an incubator at 37° C. for 2 h and washed 5 times with PBS. A biotinylated assay antibody was diluted to 0.4 μg/mL with PBS containing 1% BSA, and then 100 μL of the assay antibody was added to each well. The plate was incubated in an incubator at 37° C. for 1 h. The plate was then washed five more times, and 100 μL of avidin-HRP diluted 200-fold with PBS containing 1% BSA was added to each well. The plate was incubated at 37° C. for 30 min. The plate was washed five more times, and 100 μL of TMB substrate was added to each well. The plate was incubated at room temperature until blue color appeared, and 100 μL of stop solution was added to each well. OD450 signal values were read using a PHERAstar multi-mode microplate reader. The IC50 values for the inhibitory activity of the compounds were calculated using Graphpad Prism software.
A general note: In an ELISA, binding on a coated surface is turned into a signal by an enzyme label.

A further assay deals with CYP3A4 (Homo sapiens (Human), UniProt P08684). The assay can be described thus: Inhibition of site of metabolism of testosterone in human liver microsome CYP3A4. It counts as in vitro ADME. The settings on record: testosterone substrate. Here is the method:
• 1. Phosphate buffer (20×PBS, purchased from Sangon); • 2. NADPH (ACROS, A2646-71-1); • 3. Human liver microsome (Corning Gentest, Cat No, 452161, Lot No. 905002, Donor36); • 4. ABI QTrap 4000 LC-MS System (AB Sciex); • 5. ZORBAX Extend-C18, 3×50 mm, 3.5 μm (Agilent, USA); • 6. CYP probe substrate (testosterone, Vocko, CAS No. [58-22-0]/75 μM) and positive control inhibitor (ketoconazole, SIGMA, Cat No. K1003-100MG).
A 100 mM PBS buffer was prepared. […]. A 0.25 mg/mL microsome solution, a 7.5 mM MgCl2 and a 5 mM NADPH solution were prepared using the buffer. A 30 mM stock solution was diluted with DMSO to obtain 30 mM, 10 mM, 3 mM, 1 mM, 0.3 mM, 0.03 mM, 0.003 mM and 0 mM serial solutions I, which were further diluted 200-fold with phosphate buffer (PBS) to obtain serial test solutions II (150, 50, 15, 5, 1.5, 0.15, 0.015 and 0 μM). A testosterone working solution was diluted with PBS to […].
40 μL of a 0.25 mg/mL microsome solution prepared in 7.5 mM MgCl2 and 20 μL of each of the 375 μM testosterone working solution and the compound working solutions (150, 50, 15, 5, 1.5, 0.15, 0.015 and 0 μM) were measured out and well mixed. Ketoconazole at the same concentration was used in place of the compounds as a positive control group. The mixtures were pre-incubated […] at 37° C. for 5 min at the same time. After 5 minutes, 20 μL of NADPH was added to each well to start reactions. The mixtures were incubated for 30 min. After 30 minutes, 250 μL of internal standard-containing acetonitrile was added to all the samples. The mixtures were well mixed, shaken at 800 rpm for 10 min, and then centrifuged at 3700 rpm for 10 min. 100 μL of the supernatant and 80 μL of ultrapure water were well mixed and subjected to LC-MS/MS analysis.
The IC50 values of the drugs for the site of metabolism of testosterone in CYP3A4 were calculated using Graphpad Prism and are shown in Table 6.
For orientation: Liver microsomes are vesicles of endoplasmic reticulum, rich in cytochrome P450 enzymes.

CYP3A4, sequence (P08684 whole entry): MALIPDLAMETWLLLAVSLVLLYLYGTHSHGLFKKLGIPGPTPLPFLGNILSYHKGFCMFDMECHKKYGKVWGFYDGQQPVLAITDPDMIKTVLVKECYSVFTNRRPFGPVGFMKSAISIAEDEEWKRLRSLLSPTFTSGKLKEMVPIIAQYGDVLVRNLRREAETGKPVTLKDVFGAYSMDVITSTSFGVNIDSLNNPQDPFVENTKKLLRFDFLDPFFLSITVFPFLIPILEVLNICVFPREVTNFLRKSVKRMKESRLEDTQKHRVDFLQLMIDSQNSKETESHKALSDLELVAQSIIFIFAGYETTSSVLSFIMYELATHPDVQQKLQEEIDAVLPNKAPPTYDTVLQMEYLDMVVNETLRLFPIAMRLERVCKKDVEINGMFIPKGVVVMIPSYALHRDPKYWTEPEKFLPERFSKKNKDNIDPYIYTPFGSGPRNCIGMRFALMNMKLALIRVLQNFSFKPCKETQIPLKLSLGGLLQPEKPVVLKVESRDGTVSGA
ERα, sequence (P03372 whole entry): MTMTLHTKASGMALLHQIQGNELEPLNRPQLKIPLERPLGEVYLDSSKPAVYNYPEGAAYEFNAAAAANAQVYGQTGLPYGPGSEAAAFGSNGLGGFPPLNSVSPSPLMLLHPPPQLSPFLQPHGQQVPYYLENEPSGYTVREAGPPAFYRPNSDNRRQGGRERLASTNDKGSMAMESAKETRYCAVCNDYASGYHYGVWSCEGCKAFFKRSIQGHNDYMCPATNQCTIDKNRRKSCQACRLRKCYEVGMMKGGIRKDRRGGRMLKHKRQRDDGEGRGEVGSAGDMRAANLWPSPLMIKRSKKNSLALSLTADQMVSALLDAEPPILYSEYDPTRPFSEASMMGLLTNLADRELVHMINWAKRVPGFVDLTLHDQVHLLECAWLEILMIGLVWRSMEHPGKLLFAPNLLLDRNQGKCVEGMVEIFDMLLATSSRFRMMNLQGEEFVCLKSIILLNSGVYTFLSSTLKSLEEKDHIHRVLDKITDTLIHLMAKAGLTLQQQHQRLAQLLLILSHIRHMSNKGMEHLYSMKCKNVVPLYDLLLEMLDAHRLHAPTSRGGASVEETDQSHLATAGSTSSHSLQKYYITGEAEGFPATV

For `[2H]C1([2H])Oc2cc3c(cc2O1)[C@@H](c1ccc(NC2CN(CCCF)C2)cn1)N(CC(F)(F)CO)[C@H](C)C3` [Example 13, 2,2-Difluoro-3-((5S,7R)-5-(5-((1-(3-fluoropropyl)azetidin-3-yl)amino)pyridin-2-yl)-7-methyl-7,8-dihydro-[1,3]dioxolo[4,5-g]isoquinolin-6(5H)-yl-2,2-d2)propan-1-ol], the Dmax at ERα (MCF7, read-out: Emax degradation (%)) is 107%.
As to `C[C@@H]1Cc2cc3c(cc2[C@@H](c2ncc(N[C@H]4CCN(CCCF)C4)cc2F)N1CC(F)(F)F)OCO3` [Example 9, 5-Fluoro-N—((S)-1-(3-fluoropropyl)pyrrolidin-3-yl)-6-((5S,7R)-7-methyl-6-(2,2,2-trifluoroethyl)-5,6,7,8-tetrahydro-[1,3]dioxolo[4,5-g]isoquinolin-5-yl)pyridin-3-amine], on ERα, the Dmax at 3 µM was found to be 107% and the DC50 was determined as 1.04 nM.
As for `C[C@@H]1Cc2cc3c(cc2[C@@H](c2ccc(N[C@H]4CCN(CCCF)C4)cn2)N1CC(F)(F)F)OCO3` [Example 6, N—((S)-1-(3-fluoropropyl)pyrrolidin-3-yl)-6-((5S,7R)-7-methyl-6-(2,2,2-trifluoroethyl)-5,6,7,8-tetrahydro-[1,3]dioxolo[4,5-g]isoquinolin-5-yl)pyridin-3-amine], at ERα, the Dmax at 3 µM was determined as 104% and the DC50 stood at 0.17 nM.
Turning to `C[C@@H]1Cc2cc3c(cc2[C@@H](c2ncc(N[C@H]4CCN(CCCF)C4)cc2F)N1CC(F)(F)CO)OCO3` [Example 11, 2,2-Difluoro-3-((5S,7R)-5-(3-fluoro-5-(((S)-1-(3-fluoropropyl)pyrrolidin-3-yl)amino)pyridin-2-yl)-7-methyl-7,8-dihydro-[1,3]dioxolo[4,5-g]isoquinolin-6(5H)-yl)propan-1-ol], at ERα, the Dmax at 3 µM was 91% and the DC50 stood at 0.45 nM.
Take `[2H]C1([2H])Oc2cc3c(cc2O1)[C@@H](c1ccc(N[C@H]2CCN(CCCF)C2)cn1)N(CC(F)(F)CO)[C@H](C)C3` [Example 12, 2,2-Difluoro-3-((5S,7R)-5-(5-(((S)-1-(3-fluoropropyl)pyrrolidin-3-yl)amino)pyridin-2-yl)-7-methyl-7,8-dihydro-[1,3]dioxolo[4,5-g]isoquinolin-6(5H)-yl-2,2-d2)propan-1-ol]: half-maximal inhibition against CYP3A4 (IC50) required 23.8 µM. At ERα, the Dmax at 3 µM worked out at 101% and the DC50 came out at 0.15 nM.
For the molecule `C[C@@H]1Cc2cc3c(cc2[C@@H](c2ccc(NC4CN(CCCF)C4)cc2)N1CC(F)(F)CO)OCO3` [Example 18, 2,2-Difluoro-3-((5R,7R)-5-(4-((1-(3-fluoropropyl)azetidin-3-yl)amino)phenyl)-7-methyl-7,8-dihydro-[1,3]dioxolo[4,5-g]isoquinolin-6(5H)-yl)propan-1-ol], on ERα, the Dmax at 3 µM is 106% and the DC50 is 0.1 nM.
For the molecule `C[C@@H]1Cc2cc3c(cc2[C@@H](c2ccc(N[C@H]4CCN(CCCF)C4)cc2)N1CC(F)(F)F)OCO3` [Example 1, (S)-1-(3-fluoropropyl)-N-(4-((5R,7R)-7-methyl-6-(2,2,2-trifluoroethyl)-5,6,7,8-tetrahydro-[1,3]dioxolo[4,5-g]isoquinolin-5-yl)phenyl)pyrrolidin-3-amine], the half-maximal inhibitory concentration (IC50) against CYP3A4 was found to be 7.31 µM. In addition, at ERα, the Dmax at 3 µM came out at 94% and the DC50 came out at 0.32 nM.
`[2H]C1([2H])Oc2cc3c(cc2O1)[C@@H](c1ccc(N[C@H]2CCN(CCCF)C2)cc1)N(CC(F)(F)CO)[C@H](C)C3` [Example 19, 2,2-Difluoro-3-((5R,7R)-5-(4-(((S)-1-(3-fluoropropyl)pyrrolidin-3-yl)amino)phenyl)-7-methyl-7,8-dihydro-[1,3]dioxolo[4,5-g]isoquinolin-6(5H)-yl-2,2-d2)propan-1-ol]: at ERα, the Dmax at 3 µM was found to be 100% and the DC50 was found to be 0.13 nM.
Take `C[C@@H]1Cc2cc3c(cc2[C@@H](c2ccc(N[C@H]4CCN(CCCF)C4)cc2)N1CC(F)(F)CO)OCO3` [Example 3, 2,2-Difluoro-3-((5R,7R)-5-(4-(((S)-1-(3-fluoropropyl)pyrrolidin-3-yl)amino)phenyl)-7-methyl-7,8-dihydro-[1,3]dioxolo[4,5-g]isoquinolin-6(5H)-yl)propan-1-ol]: the IC50 on CYP3A4 amounted to 14.6 µM. In addition, at ERα, the Dmax at 3 µM was determined as 129% and the DC50 amounted to 0.19 nM.
Regarding `C[C@@H]1Cc2cc3c(cc2[C@@H](c2ccc(NC4CN(CCCF)C4)cn2)N1CC(F)(F)CO)OCO3` [Example 14, 2,2-Difluoro-3-((5S,7R)-5-(5-((1-(3-fluoropropyl)azetidin-3-yl)amino)pyridin-2-yl)-7-methyl-7,8-dihydro-[1,3]dioxolo[4,5-g]isoquinolin-6(5H)-yl)propan-1-ol], on ERα, the Dmax at 3 µM is 92% and the DC50 was 0.5 nM.
Taken in the same sequence, the figures for `C[C@@H]1Cc2cc3c(cc2[C@@H](c2c(F)cc(N[C@H]4CCN(CCCF)C4)cc2F)N1CC(F)(F)CO)OCO3` [Example 5, 3-((5S,7R)-5-(2,6-difluoro-4-(((S)-1-(3-fluoropropyl)pyrrolidin-3-yl)amino)phenyl)-7-methyl-7,8-dihydro-[1,3]dioxolo[4,5-g]isoquinolin-6(5H)-yl)-2,2-difluoro-1-propanol] were 108% and 0.04 nM.
For `C[C@@H]1Cc2cc3c(cc2[C@@H](c2c(F)cc(O[C@H]4CCN(CCCF)C4)cc2F)N1CC(F)(F)F)OCO3` [Example 15, (5S,7R)-5-(2,6-difluoro-4-(((S)-1-(3-fluoropropyl)pyrrolidin-3-yl)oxy)phenyl)-7-methyl-6-(2,2,2-trifluoroethyl)-5,6,7,8-tetrahydro-[1,3]dioxolo[4,5-g]isoquinoline], at ERα, the Dmax at 3 µM came to 95% and the DC50 was determined as 0.15 nM.
As for `C[C@@H]1Cc2cc3c(cc2[C@@H](c2c(F)cc(N[C@H]4CCN(CCCF)C4)cc2F)N1CC(F)(F)F)OCO3` [Example 2, (S)—N-(3,5-difluoro-4-((5S,7R)-7-methyl-6-(2,2,2-trifluoroethyl)-5,6,7,8-tetrahydro-[1,3]dioxolo[4,5-g]isoquinolin-5-yl)phenyl)-1-(3-fluoropropyl)pyrrolidin-3-amine], the half-inhibitory concentration (IC50) against CYP3A4 is more than 30 µM. At ERα, the Dmax at 3 µM worked out at 104% and the DC50 was determined as 0.24 nM.
Turning to `C[C@@H]1Cc2cc3c(cc2[C@@H](c2ccc(NC4CN(CCCF)C4)cn2)N1CC(F)(F)F)OCO3` [Example 17, N-(1-(3-fluoropropyl)azetidin-3-yl)-6-((5S,7R)-7-methyl-6-(2,2,2-trifluoroethyl)-5,6,7,8-tetrahydro-[1,3]dioxolo[4,5-g]isoquinolin-5-yl)pyridin-3-amine], at ERα, the Dmax at 3 µM came out at 104% and the DC50 was determined as 1.24 nM.

For orientation: IC50 means the concentration needed to halve the response being measured.
